Laboratory results reported in patent publication US20230338362A1 (priority 2020, published 2023).
Like-named read-outs stand apart in the source and are kept apart here.

Tests used:
[1] = tested on: macrophages treated with SARS-CoV-2 Spike protein; format: cell-based, human; further: test concentration or dose not given here
[2] = tested on: macrophages treated with SARS-CoV-2 Spike protein; format: cell-based, human; remark: listed apart in the source; further: test concentration or dose not given here
[3] = tested on: common cold coronavirus; assay: In vitro activity against common cold coronaviruses, methods analogous to Example 1; format: cell-based
[4] = tested on: MERS-CoV; format: cell-based
[5] = tested on: SARS-CoV-2; assay: SARS-CoV-2 inhibition, cell viability assay (CellTiter-Glo) in VERO-E6 cells enriched for ACE-2; format: cell-based
[6] = tested on: Influenza B; assay: In vitro activity against Influenza B, methods analogous to Example 1; format: cell-based
[7] = tested on: Influenza A; assay: In vitro activity against Influenza A, methods analogous to Example 1; format: cell-based
[8] = tested on: SARS-CoV; format: cell-based
[9] = Severe acute respiratory syndrome coronavirus 2, Vero C1008; Table II, antiviral compounds; VERO-E6 cells enriched for ACE-2 plus SARS-CoV-2; read-out: IC50
[10] = Severe acute respiratory syndrome coronavirus 2, Vero C1008; read-out: IC50 in an in vitro inhibition assay against SARS-CoV-2

SMILES	apoptosis by activation of caspase 3 [1]	apoptosis by caspase 3 activation [1]	anti-inflammatory cytokines [2]	expression of cytokine modulators / anti-inflammatory cytokines [2]	expression of pro-inflammatory cytokines [2]	pro-inflammatory cytokines [2]	activity against common cold coronavirus [3]	activity against MERS-CoV [4]	IC50 [5, 9] [µM]	IC50 [5, 10] [µM]	activity against Influenza B [6]	activity against Influenza A [7]	activity against SARS-CoV [8]	IC50 ([5]; Severe acute respiratory syndrome coronavirus 2, Vero C1008, read-out: IC50 in an in vitro inhibition assay against SARS-CoV-2) [µM]
COc1cc(O)cc(O)c1C(=O)/C=C/c1ccc(O)cc1 [Helichrysetin, (E)-1-(2,4-dihydroxy-6-methoxyphenyl)-3-(4-hydroxyphenyl)prop-2-en-1-one]	selectively induces apoptosis	not observed to induce apoptosis	inducing anti-inflammatory cytokines such as IL-10	activated expression of cytokine modulator IL-10	inhibited expression of pro-inflammatory cytokines IL-1α, VEGF, IL-1β, IL-4, IL-5, IL-6, IL-8, IL-12p70, IL-13, MCP-1, MIP-1α, MIP-1β, MMP-9 and TNF-α	selectively inhibited pro-inflammatory cytokine, such as IL-1α, VEGF, IL-1β, IL-4, IL-5, IL-6, IL-8, IL-12p70, IL-13, MCP-1, MIP-1α, MIP-1β, MMP-9 and TNF-α	active	active	10.4	10.4	active	active	active	
O=C(/C=C/c1ccccc1)Nc1ccccc1 [cinnamanilide, (E)-N,3-diphenylprop-2-enamide]			inducing anti-inflammatory cytokines such as IL-10	activated expression of cytokine modulator IL-10	inhibited expression of pro-inflammatory cytokines IL-1α, VEGF, IL-6, IL-8, IL-13, GM-CSF, MIP-1α, MIP-1β, MMP-9 and RANTES	selectively inhibited pro-inflammatory cytokine, such as IL-1α, VEGF, IL-6, IL-8, IL-13, GM-CSF, MIP-1α, MIP-1β, MMP-9 and RANTES								
O=C(O)[C@H]1O[C@@H](Oc2cc3oc(-c4ccccc4)cc(=O)c3c(O)c2O)[C@H](O)[C@@H](O)[C@@H]1O [Baicalin, baicalin]							active	active	5.96	5.96	active	active	active	
CC(C)=CCc1cc([C@@H]2CCc3ccc(O)cc3O2)c(CC=C(C)C)c(O)c1O [kazinol A, 4-[(2S)-7-hydroxy-3,4-dihydro-2H-chromen-2-yl]-3,6-bis(3-methylbut-2-enyl)benzene-1,2-diol]	selectively induces apoptosis	induced apoptosis	inducing anti-inflammatory cytokines such as IL-10	activated expression of cytokine modulator IL-10	inhibited expression of pro-inflammatory cytokines IL-1α, IL-4, IL-8, MIP-1β and MMP-9	selectively inhibited pro-inflammatory cytokine, such as IL-1α, IL-4, IL-8, MIP-1β and MMP-9								
O=c1cc(-c2ccccc2)oc2cc(O)c(O)c(O)c12 [baicalein, 5,6,7-trihydroxy-2-phenylchromen-4-one]	selectively induces apoptosis	induced apoptosis	inducing anti-inflammatory cytokines such as IL-10	activated expression of cytokine modulators IL-10 and IFN-γ	inhibited expression of pro-inflammatory cytokines IL-1α, IL-8, GRO, MCP-1, MIP-1α, MIP-1β, MMP-9 and TNF-α	selectively inhibited pro-inflammatory cytokine, such as IL-1α, IL-8, GRO, MCP-1, MIP-1α, MIP-1β, MMP-9 and TNF-α								
COc1ccc2cc1Oc1ccc(cc1)C[C@H]1c3cc(c(OC)cc3CCN1C)Oc1c(OC)c(OC)cc3c1[C@H](C2)N(C)CC3 [Tetrandrine, (1S,14S)-9,20,21,25-tetramethoxy-15,30-dimethyl-7,23-dioxa-15,30-diazaheptacyclo[22.6.2.2^3,6.1^8,12.1^14,18.0^27,31.0^22,33]hexatriaconta-3(36),4,6(35),8,10,12(34),18,20,22(33),24,26,31-dodecaene]	selectively induces apoptosis	induced apoptosis	inducing anti-inflammatory cytokines, such as IL-10	activating expression of the anti-inflammatory cytokine IL-10	inhibited expression of pro-inflammatory cytokines VEGF, IL-6, IL-8, MIP-1α and MIP-1β	selectively inhibited pro-inflammatory cytokine, such as VEGF, IL-6, IL-8, MIP-1α and MIP-1β	active	active			active	active	active	
COc1ccc2cc1Oc1ccc(cc1)C[C@H]1c3cc(c(OC)cc3CCN1C)Oc1c(O)c(OC)cc3c1[C@H](C2)N(C)CC3 [Fangchinoline, (1S,14S)-9,20,25-trimethoxy-15,30-dimethyl-7,23-dioxa-15,30-diazaheptacyclo[22.6.2.2^3,6.1^8,12.1^14,18.0^27,31.0^22,33]hexatriaconta-3(36),4, 6(35),8,10,12(34),18,20,22(33),24,26,31-dodecaen-21-ol]	selectively induces apoptosis	induced apoptosis			inhibited expression of pro-inflammatory cytokines VEGF, IL-8, MIP-1β and MMP-9	selectively inhibited pro-inflammatory cytokines, such as VEGF, IL-8, GRO, MIP-1β and MMP-9	active	active	2.05	2.05	active	active	active	
CC(C)=CCc1cc(C(=O)/C=C/c2ccc(O)cc2)c(O)cc1O [Bavachalcone B]							active	active	1.43	1.43	active	active	active	
CN(C)CCCSc1ccccc1NC(=O)/C=C/c1ccccc1 [Cinanserin, cinanserin]							active	active	13.7	13.7	active	active	active	
O=C(/C=C/c1ccc(O)c(O)c1)O[C@H](Cc1ccc(O)c(O)c1)C(=O)O [Rosmarinic acid]							active	active	0.89		active	active	active	0.89
COc1ccc(-c2coc3cc(O)ccc3c2=O)cc1 [formononetin, 7-hydroxy-3-(4-methoxyphenyl)chromen-4-one]	selectively induces apoptosis	induced apoptosis	inducing anti-inflammatory cytokines, such as IL-10 and IFN-γ	activated expression of cytokine modulators IL-10 and IFN-γ	inhibited expression of pro-inflammatory cytokines VEGF, IL-6, IL-8, GRO, MCP-1, MIP-1α, MIP-1β, MMP-9 and RANTES	selectively inhibited pro-inflammatory cytokine, such as VEGF, IL-6, IL-8, GRO, MCP-1, MIP-1α, MIP-1β, MMP-9 and RANTES								
